Reference: patent US11795378B2, “Iron control composition, make, and use in carbonate stimulation” (King Fahd University of Petroleum and Minerals, priority 2019, dated 2023)

Tests used:
[1] = Solubility and stability test of iron in concentrated HCl chelating agent formulations; assay type: physicochemical; conditions: 5 wt. % single chelating agent, 72° F. (22.2° C.)
Protocol: The solubility test was conducted at varying HCl and chelating agent concentrations. During the solubility test the concentration of HCl was set to either 20 wt. % (low) or 28 wt. % (high) concentration.
Each chelating agent was used alone with varied concentrations ranging from 1 to 10 wt %.
To the evaluate the capability of the generated formulation to sustain the iron in the solution without precipitation, 3000 ppm of iron was dissolved in the respective formulations, and, after that, the stability of the formulation as function of time was evaluated.
The effect of the pH on the performance of exemplary inventive formulations was evaluated by repeating the solubility and stability tests at varied pH values.

[2] = 5% chelating agent, 3000 ppm ferric ions; cited from earlier work
[3] = 20 wt. % HCl, 3000 ppm iron, 96 hours
[4] = 28 wt. % HCl at pH 5, 3000 ppm ferric ions, after 96 hours

With O=C(O)CN(CCO)CCN(CC(=O)O)CC(=O)O [HEDTA, hydroxyethyl ethylenediamine triacetic acid] the “iron precipitation during stability evaluation” value [1, 3] was “no precipitation” and the “iron precipitation during stability evaluation” value [1, 4] was “precipitation”.

In the case of O=C(O)CC[C@@H](C(=O)O)N(CC(=O)O)CC(=O)O [GLDA, glutamic acid N,N-diacetic acid], the “pH up to which ferric ions are kept in solution” value [2] is listed as “less than 3.0”, the “iron precipitation during stability evaluation” value [1, 3] is listed as “no precipitation” and the “iron precipitation during stability evaluation” value [1, 4] is listed as “precipitation”.
